# Tests used:
# H460 = assay: Cellular H460 viability assay (CellTiter-Glo, 72 hours); type: cell-based; conditions: Homo sapiens, NCI-H460
# Summary of the method: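 Cells were plated at line-specific densities and exposed to compound for 72 hours at 37 °C, 5% CO2, with DMSO-only wells as control (final DMSO below 0.1%). Viability was measured by CellTiter-Glo luminescence in duplicate.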
# CDK7/Cyclin H/MNAT1 = target: T1, CDK7/Cyclin H/MNAT1 (Homo sapiens, UniProt P50613); assay: Enzymatic assay for CDK7 (FRET based LANCE Ultra kinase assay); type: biochemical
# T1 construct: purchased Invitrogen PR6749B
# T1 sequence (P50613 whole entry): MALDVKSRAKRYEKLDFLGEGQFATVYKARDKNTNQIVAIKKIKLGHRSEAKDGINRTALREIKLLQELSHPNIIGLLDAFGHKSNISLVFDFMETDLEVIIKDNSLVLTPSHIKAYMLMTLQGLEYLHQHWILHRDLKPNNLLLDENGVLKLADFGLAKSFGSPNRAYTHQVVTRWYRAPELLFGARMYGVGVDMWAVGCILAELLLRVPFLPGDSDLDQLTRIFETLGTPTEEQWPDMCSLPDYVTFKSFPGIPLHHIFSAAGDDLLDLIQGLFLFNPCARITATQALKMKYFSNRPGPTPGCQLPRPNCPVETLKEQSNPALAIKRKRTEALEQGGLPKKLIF
# T1 sequence (P51946 whole entry partner): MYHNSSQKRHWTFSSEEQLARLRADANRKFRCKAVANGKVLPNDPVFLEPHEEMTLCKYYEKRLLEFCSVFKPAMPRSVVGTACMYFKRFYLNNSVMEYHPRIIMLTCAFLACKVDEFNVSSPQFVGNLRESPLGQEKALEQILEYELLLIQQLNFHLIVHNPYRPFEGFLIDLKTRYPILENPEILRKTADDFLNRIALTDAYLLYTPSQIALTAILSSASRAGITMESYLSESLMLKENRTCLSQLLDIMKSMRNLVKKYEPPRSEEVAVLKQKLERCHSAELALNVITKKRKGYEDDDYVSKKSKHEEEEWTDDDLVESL
# T1 sequence (P51948 whole entry partner): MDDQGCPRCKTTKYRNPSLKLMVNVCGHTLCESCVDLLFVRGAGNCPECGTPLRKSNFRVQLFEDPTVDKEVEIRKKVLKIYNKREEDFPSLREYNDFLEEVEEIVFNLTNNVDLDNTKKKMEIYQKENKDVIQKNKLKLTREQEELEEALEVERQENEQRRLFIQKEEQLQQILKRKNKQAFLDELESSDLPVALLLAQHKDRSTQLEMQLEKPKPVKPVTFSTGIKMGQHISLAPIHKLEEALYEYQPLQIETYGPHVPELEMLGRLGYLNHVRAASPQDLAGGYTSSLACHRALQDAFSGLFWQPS
# Summary of the method: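 LANCE Ultra TR-FRET kinase assay using a ULight-labeled peptide substrate and a Eu-labeled anti-phospho antibody, with ATP at its Km. Purified CDK/cyclin complex was added to compound after brief centrifugation.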
# CDK1/Cyclin B = target: T2, CDK1/Cyclin B (Homo sapiens, UniProt P06493); assay: Enzymatic assay for CDK1 (FRET based LANCE Ultra kinase assay); type: biochemical; conditions: read-out: CDK1 enzymatic activity (IC50 range)
# T2 construct: purchased Invitrogen PR4768C
# T2 sequence (P06493 whole entry): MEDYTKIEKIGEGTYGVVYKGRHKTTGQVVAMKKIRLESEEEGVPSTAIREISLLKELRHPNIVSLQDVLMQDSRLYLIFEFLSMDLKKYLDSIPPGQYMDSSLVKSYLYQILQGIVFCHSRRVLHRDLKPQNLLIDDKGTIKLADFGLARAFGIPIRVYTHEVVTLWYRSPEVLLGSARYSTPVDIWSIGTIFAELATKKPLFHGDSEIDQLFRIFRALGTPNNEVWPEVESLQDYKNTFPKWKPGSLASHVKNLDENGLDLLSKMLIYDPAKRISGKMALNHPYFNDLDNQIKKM
# T2 sequence (P14635 whole entry partner): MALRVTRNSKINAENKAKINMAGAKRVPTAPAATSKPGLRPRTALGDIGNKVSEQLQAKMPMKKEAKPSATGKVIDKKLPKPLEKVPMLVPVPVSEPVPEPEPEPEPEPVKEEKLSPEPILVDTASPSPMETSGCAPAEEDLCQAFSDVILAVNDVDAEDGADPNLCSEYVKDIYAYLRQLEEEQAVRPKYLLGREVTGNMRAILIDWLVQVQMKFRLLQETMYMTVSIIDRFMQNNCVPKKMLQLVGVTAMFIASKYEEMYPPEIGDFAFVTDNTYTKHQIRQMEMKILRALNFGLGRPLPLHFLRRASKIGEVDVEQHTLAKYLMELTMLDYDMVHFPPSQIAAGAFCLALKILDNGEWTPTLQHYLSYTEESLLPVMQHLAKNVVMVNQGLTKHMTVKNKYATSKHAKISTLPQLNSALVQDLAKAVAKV
# Summary of the method: (§1)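 LANCE Ultra TR-FRET: ULight-MBP peptide (68 nM) with ATP at Km, […], 60 min at 23° C. EDTA plus Eu-anti-phospho-MBP added, another 60 min, then 665/615 nm emission read. Compounds tested as 8-dose 4-fold DMSO dilutions.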
# CDK2/Cyclin A = target: T3, CDK2/Cyclin A (Homo sapiens, UniProt P24941); assay: Enzymatic assay for CDK2 (FRET based LANCE Ultra kinase assay); type: biochemical; conditions: read-out: CDK2 enzymatic activity (IC50 range)
# T3 construct: purchased Invitrogen PV6290
# Summary of the method: as §1
# A2780 = assay: Cellular A2780 viability assay (CellTiter-Glo, 72 hours); type: cell-based; conditions: Homo sapiens
# Summary of the method: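 Cells seeded at 1×10^4/well (MM.1S), 5×10^3 (OVCAR-3) or 1×10^3 (A2780), grown in RPMI-1640 with 10% FBS. After 24 h, compound added at 0.0015–10 uM, final DMSO below 0.1%, for 72 h at 37° C. Viability read by CellTiter-Glo luminescence in duplicate, with curve fitting.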
compound,measurement,setting,value
CC(C)c1cnn2c(NCc3c(Cl)cccc3-n3ccc(C(C)(C)O)n3)nc(N3CCC(N)CC3)nc12 [Compound 210],IC50,H460,< 1000 nM
same,CDK1/CDK7: Selectivity of CDK7 inhibition over CDK1 inhibition,CDK7/Cyclin H/MNAT1; CDK7 over CDK1,A (A=greater than 200 fold)
same,CDK2/CDK7: Selectivity of CDK7 inhibition over CDK2 inhibition,CDK7/Cyclin H/MNAT1; CDK7 over CDK2,A (A=greater than 200 fold)
same,CDK5/CDK7: Selectivity of CDK7 inhibition over CDK5 inhibition,CDK7/Cyclin H/MNAT1; CDK7 over CDK5,A (A=greater than 200 fold)
same,IC50,CDK7/Cyclin H/MNAT1; read-out: CDK7 enzymatic activity (IC50 range),< 100 nM
same,IC50,CDK1/Cyclin B,> 1000 nM
same,IC50,CDK2/Cyclin A,> 1000 nM
same,IC50,A2780,≤ 1000 nM

# — US11945822B2, “Pyrazolo-triazine and/or pyrazolo-pxrimidine derivatives as selective inhibitor of cyclin dependent kinase” (QURIENT CO., LTD., priority 2018, dated 2024)
